According to US20260001888A1, “PYRAZOLOPYRIMIDINE PDE9 INHIBITORS” (Merck Sharp & Dohme LLC, priority 2018, published 2026):

Molecular target: Human PDE9 (PDE9A2) (Homo sapiens (Human), UniProt O76083)
Assay: PDE9 IMAP fluorescence polarization (FP) inhibition assay
Assay type: biochemical
Conditions: apparent inhibition constant; human PDE9A2, FAM-cGMP substrate 50 nM, room temperature
Description: The activity of the compounds in accordance with the present invention as PDE9 inhibitors may be readily determined without undue experimentation using a fluorescence polarization (FP) methodology that is well known in the art (Huang, W., et al., J. Biomol Screen, 2002, 7:215).
In a typical experiment the PDE9 inhibitory activity of the compounds of the present invention was determined in accordance with the following experimental method.
Human PDE9 (PDE9A2, GenBank Accession No. NM_001001567), full length with N-terminal GST tag, was purchased from BPS Bioscience. The fluorescence polarization assay for cyclic nucleotide phosphodiesterases was performed using an IMAP® FP kit supplied by Molecular Devices, Sunnyvale, CA (product #R8139). IMAP® technology has been applied previously to phosphodiesterase assays (Huang, W., et al., J. Biomol Screen, 2002, 7:215). Assays were performed at room temperature in 384-well microtiter plates with an incubation volume of 20.2 μL. Solutions of test compounds were prepared in DMSO and serially diluted with DMSO to yield 8 μL of each of 10 solutions differing by 3-fold in concentration, at 32 serial dilutions per plate. 100% inhibition is determined using a known PDE9 inhibitor, such as 1-(2-chlorophenyl)-6-[(2R)-3,3,3-trifluoro-2-methylpropyl]-1,5-dihydro-4H-pyrazolo[3,4-d]pyrimidine-4-one (BAY 73-6691) (Wunder et al, Mol. Pharmacol., 2005, 68 (6): 1775-81), (6-[(3S,4S)-4-methyl-1-(pyrimidin-2-ylmethyl) pyrrolidin-3-yl]-1-(tetrahydro-2H-pyran-4-yl)-1,5-dihydro-4H-pyrazolo[3,4-d]pyrimidin-4-one (PF-04447943) (Wager et al., ACS Chemical Neuroscience, 2010, 1:435-449). 0% of inhibition is determined by using DMSO (1% final concentrations). A Labcyte Echo 555 (Labcyte, Sunnyvale, CA) is used to dispense 200 nL from each well of the titration plate to the 384 well assay plate. Human PDE9A2 membrane preps were diluted to 1 ng/ml. […] PDE9 enzyme mix and compounds were mixed and incubated at room temperature for 30 min. Following which, FAMcGMP substrate was added, shaken and incubated for an additional 60 min at room temperature. The final concentration of human PDE9 membrane preparations were 0.5 ng/ml. The final concentration of FAM-cGMP was 50 nM. After the incubation period, the enzymatic reaction was stopped by addition of binding solution (IMAP-FP, Molecular Devices, comprised of 80% Solution A, 20% Solution B and a 1:600 dilution of binding reagent) to each well. The plates were shaken then incubated at room temperature for 1 h prior to determining the fluorescence polarization (mP) using a Perkin Elmer En Vision™ plate reader (Waltham, MA).
Fluorescence polarization (mP) was calculated from the parallel(S) and perpendicular (P) fluorescence of each sample well and the analogous values for the median control well, containing only substrate (So and Po), using the following equation: […]
Dose-inhibition profiles for each compound were characterized by fitting the mP data to a four-parameter equation given below. The apparent inhibition constant (KI), the maximum inhibition at the low plateau relative to “100% Inhibition Control” (Imax; e.g. 1=>same as this control), the minimum inhibition at the high plateau relative to the “0% Inhibition Control” (Imin, e.g. 0=>same as the no drug control) and the Hill slope (nH) are determined by a non-linear least squares fitting of the mP values as a function of dose of the compound using an in-house software based on the procedures described by Mosser et al., JALA, 2003, 8:54-63, using the following equation: […]
An apparent (Km) for FAM-labeled […] of 150 nM was determined in separate experiments through simultaneous variation of substrate and selected drug concentrations.

Sequence of Human PDE9 (PDE9A2) (O76083 other isoform, or with tags, fused parts or gaps): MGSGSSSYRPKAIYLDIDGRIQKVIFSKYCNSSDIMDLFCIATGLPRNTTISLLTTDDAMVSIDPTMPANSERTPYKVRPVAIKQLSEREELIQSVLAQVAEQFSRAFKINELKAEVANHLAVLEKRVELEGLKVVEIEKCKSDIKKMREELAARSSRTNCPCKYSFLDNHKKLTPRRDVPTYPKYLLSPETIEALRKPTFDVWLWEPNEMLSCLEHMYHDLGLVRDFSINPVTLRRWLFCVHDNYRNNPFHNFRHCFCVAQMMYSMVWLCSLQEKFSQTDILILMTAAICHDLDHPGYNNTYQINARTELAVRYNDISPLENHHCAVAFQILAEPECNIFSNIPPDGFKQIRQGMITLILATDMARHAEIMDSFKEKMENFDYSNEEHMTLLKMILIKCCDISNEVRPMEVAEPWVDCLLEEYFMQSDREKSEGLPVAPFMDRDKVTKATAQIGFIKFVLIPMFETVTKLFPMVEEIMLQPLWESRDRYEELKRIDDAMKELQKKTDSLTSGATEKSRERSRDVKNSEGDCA

For `CCC(c1ncc(C(F)F)cn1)N(C)c1nc2c(c(C#N)nn2C(C)c2ccc(C(F)(F)F)nc2)c(=O)[nH]1` (single isomer, unassigned) [Example 20, 6-[1-[5-(difluoromethyl)pyrimidin-2-yl]propyl-methyl-amino]-4-oxo-1-[1-[6-(trifluoromethyl)-3-pyridyl]ethyl]-5H-pyrazolo[3,4-d]pyrimidine-3-carbonitrile], which Ki is on record?
Its Ki is 1.57 nM.

Which Ki does the source give for `CC(C)C(c1ncccn1)N(C)c1nc2c(c(C#N)nn2C(C)c2ccc(C(F)(F)F)nc2)c(=O)[nH]1` (single isomer, unassigned) [Example 21, 6-[methyl-(2-methyl-1-pyrimidin-2-yl-propyl)amino]-4-oxo-1-[1-[6-(trifluoromethyl)-3-pyridyl]ethyl]-5H-pyrazolo[3,4-d]pyrimidine-3-carbonitrile] here?
The Ki was 15.2 nM.

For `CC(C)C(c1ncccn1)N(C)c1nc2c(c(C#N)nn2C(C)c2ccc(C(F)(F)F)nc2)c(=O)[nH]1` (single isomer, unassigned) [Example 22, 6-[methyl-(2-methyl-1-pyrimidin-2-yl-propyl)amino]-4-oxo-1-[1-[6-(trifluoromethyl)-3-pyridyl]ethyl]-5H-pyrazolo[3,4-d]pyrimidine-3-carbonitrile], which Ki is on record?
The Ki was 6.5 nM.

For `CC(C)C(c1ncccn1)N(C)c1nc2c(c(C#N)nn2C(C)c2ccc(C(F)(F)F)nc2)c(=O)[nH]1` (single isomer, unassigned) [Example 23, 6-[methyl-(2-methyl-1-pyrimidin-2-yl-propyl)amino]-4-oxo-1-[1-[6-(trifluoromethyl)-3-pyridyl]ethyl]-5H-pyrazolo[3,4-d]pyrimidine-3-carbonitrile], which Ki is on record?
The Ki was 0.6 nM.

How did the Ki turn out when `CC(C)C(c1ncccn1)N(C)c1nc2c(c(C#N)nn2C(C)c2ccc(C(F)(F)F)nc2)c(=O)[nH]1` (single isomer, unassigned) [Example 24, 6-[methyl-(2-methyl-1-pyrimidin-2-yl-propyl)amino]-4-oxo-1-[1-[6-(trifluoromethyl)-3-pyridyl]ethyl]-5H-pyrazolo[3,4-d]pyrimidine-3-carbonitrile] was run?
The Ki was 69.2 nM.

`CC(c1ccc(C(F)(F)F)nc1)n1nc(C#N)c2c(=O)[nH]c(N(C)C(c3ncccn3)C3CC3)nc21` (single isomer, unassigned) [Example 25, 6-[[cyclopropyl(pyrimidin-2-yl)methyl]-methyl-amino]-4-oxo-1-[1-[6-(trifluoromethyl)-3-pyridyl]ethyl]-5H-pyrazolo[3,4-d]pyrimidine-3-carbonitrile] was tested. Which Ki did it give?
The Ki was 4.08 nM.

`CC(c1ccc(C(F)(F)F)nc1)n1nc(C#N)c2c(=O)[nH]c(N(C)C(c3ncccn3)C3CC3)nc21` (single isomer, unassigned) [Example 26, 6-[[cyclopropyl(pyrimidin-2-yl)methyl]-methyl-amino]-4-oxo-1-[1-[6-(trifluoromethyl)-3-pyridyl]ethyl]-5H-pyrazolo[3,4-d]pyrimidine-3-carbonitrile] was tested. Which Ki did it give?
Its Ki is 52.9 nM.

For `CC(c1ccc(C(F)(F)F)nc1)n1nc(C#N)c2c(=O)[nH]c(N(C)C(c3ncccn3)C3CC3)nc21` (single isomer, unassigned) [Example 27, 6-[[cyclopropyl(pyrimidin-2-yl)methyl]-methyl-amino]-4-oxo-1-[1-[6-(trifluoromethyl)-3-pyridyl]ethyl]-5H-pyrazolo[3,4-d]pyrimidine-3-carbonitrile], which Ki is on record?
Its Ki is 6.67 nM.

For `CC(c1ccc(C(F)(F)F)nc1)n1nc(C#N)c2c(=O)[nH]c(N(C)C(c3ncccn3)C3CC3)nc21` (single isomer, unassigned) [Example 28, 6-[[cyclopropyl(pyrimidin-2-yl)methyl]-methyl-amino]-4-oxo-1-[1-[6-(trifluoromethyl)-3-pyridyl]ethyl]-5H-pyrazolo[3,4-d]pyrimidine-3-carbonitrile], which Ki is on record?
The Ki was 20.3 nM.

With `CC(c1ccc(C(F)(F)F)nc1)n1nc(C#N)c2c(=O)[nH]c(N(C)C(c3ncccn3)C3CCC3)nc21` (single isomer, unassigned) [Example 29, 6-[[cyclobutyl(pyrimidin-2-yl)methyl]-methyl-amino]-4-oxo-1-[1-[6-(trifluoromethyl)-3-pyridyl]ethyl]-5H-pyrazolo[3,4-a]pyrimidine-3-carbonitrile] as the compound, how does the Ki read?
Its Ki is 8.96 nM.

For `CC(c1ccc(C(F)(F)F)nc1)n1nc(C#N)c2c(=O)[nH]c(N(C)C(c3ncccn3)C3CCC3)nc21` (single isomer, unassigned) [Example 30, 6-[[cyclobutyl(pyrimidin-2-yl)methyl]-methyl-amino]-4-oxo-1-[1-[6-(trifluoromethyl)-3-pyridyl]ethyl]-5H-pyrazolo[3,4-a]pyrimidine-3-carbonitrile], which Ki is on record?
Its Ki is 16.4 nM.

How did the Ki turn out when `CC(c1ccc(C(F)(F)F)nc1)n1nc(C#N)c2c(=O)[nH]c(N(C)C(c3ncccn3)C3CCC3)nc21` (single isomer, unassigned) [Example 31, 6-[[cyclobutyl(pyrimidin-2-yl)methyl]-methyl-amino]-4-oxo-1-[1-[6-(trifluoromethyl)-3-pyridyl]ethyl]-5H-pyrazolo[3,4-a]pyrimidine-3-carbonitrile] was run?
The Ki was 1.2 nM.

For `CCC(c1ccc(F)cn1)N(C)c1nc2c(c(C#N)nn2C(C)c2ccc(C(F)(F)F)nc2)c(=O)[nH]1` (single isomer, unassigned) [Example 33, 6-[1-(5-fluoro-2-pyridyl)propyl-methyl-amino]-4-oxo-1-[1-[6-(trifluoromethyl)-3-pyridyl]ethyl]-5H-pyrazolo[3,4-d]pyrimidine-3-carbonitrile], which Ki is on record?
The Ki was 0.59 nM.

`CCC(c1ccc(F)cn1)N(C)c1nc2c(c(C#N)nn2C(C)c2ccc(C(F)(F)F)nc2)c(=O)[nH]1` (single isomer, unassigned) [Example 34, 6-[1-(5-fluoro-2-pyridyl)propyl-methyl-amino]-4-oxo-1-[1-[6-(trifluoromethyl)-3-pyridyl]ethyl]-5H-pyrazolo[3,4-d]pyrimidine-3-carbonitrile] was tested. Which Ki did it give?
Its Ki is 0.16 nM.

How did the Ki turn out when `CCC(c1ccc(F)cn1)N(C)c1nc2c(c(C#N)nn2C(C)c2ccc(C(F)(F)F)nc2)c(=O)[nH]1` (single isomer, unassigned) [Example 35, 6-[1-(5-fluoro-2-pyridyl)propyl-methyl-amino]-4-oxo-1-[1-[6-(trifluoromethyl)-3-pyridyl]ethyl]-5H-pyrazolo[3,4-d]pyrimidine-3-carbonitrile] was run?
Its Ki is 7.12 nM.

`CCC(c1ccc(F)cn1)N(C)c1nc2c(c(C#N)nn2C(C)c2ccc(C(F)(F)F)nc2)c(=O)[nH]1` (single isomer, unassigned) [Example 36, 6-[1-(5-fluoro-2-pyridyl)propyl-methyl-amino]-4-oxo-1-[1-[6-(trifluoromethyl)-3-pyridyl]ethyl]-5H-pyrazolo[3,4-d]pyrimidine-3-carbonitrile] was tested. Which Ki did it give?
Its Ki is 19.9 nM.

How did the Ki turn out when `CCC(c1ncc(F)cn1)N(C)c1nc2c(c(C#N)nn2C(C)C2CCOCC2)c(=O)[nH]1` (single isomer, unassigned) [Example 37, 6-[1-(5-fluoropyrimidin-2-yl)propyl-methyl-amino]-4-oxo-1-(1-tetrahydropyran-4-ylethyl)-5H-pyrazolo[3,4-d]pyrimidine-3-carbonitrile] was run?
Its Ki is 2.67 nM.

Which Ki does the source give for `CCC(c1ncc(F)cn1)N(C)c1nc2c(c(C#N)nn2C(C)C2CCOCC2)c(=O)[nH]1` (single isomer, unassigned) [Example 38, 6-[1-(5-fluoropyrimidin-2-yl)propyl-methyl-amino]-4-oxo-1-(1-tetrahydropyran-4-ylethyl)-5H-pyrazolo[3,4-d]pyrimidine-3-carbonitrile] here?
The Ki was 8.35 nM.

`CCC(c1ncc(F)cn1)N(C)c1nc2c(c(C#N)nn2C(C)C2CCOCC2)c(=O)[nH]1` (single isomer, unassigned) [Example 39, 6-[1-(5-fluoropyrimidin-2-yl)propyl-methyl-amino]-4-oxo-1-(1-tetrahydropyran-4-ylethyl)-5H-pyrazolo[3,4-d]pyrimidine-3-carbonitrile] was tested. Which Ki did it give?
The Ki was 0.17 nM.
